# Experimental data: EP0701444B1, “METHODS AND COMPOSITIONS FOR INDUCING SLEEP” (Purdue Pharma Ltd., priority 1993, dated 1994)
# “And” between values parts separate entries of the source, which are not always exact repeats. Identical values can stand only once. Counter-ions that a name gives are not always drawn.
# Biological target: steroid site on the GABAA receptor-chloride channel complex
# Assay: [35S]TBPS binding assay
# Set-up: species or system Male Sprague-Dawley rats
# Details: inhibition of [35S]TBPS (2 nM) binding, rat cerebral cortex P2 membranes, 5 µM GABA, 90 minute incubation at 22°C
# Protocol: TBPS binding assays were conducted according to the following procedures, which are described in Gee, K.W.; Lawrence, L.J.; and Yamamura, H. I., "Modulation of the Chloride Ionophore by Benzodiazepine Receptor Ligands Influence of Gamma-Aminobutyric Acid and Ligand Efficacy," Molecular Pharmacology, 30:218, 1986. Male Sprague-Dawley rats (200-250g) were anesthetized with carbon dioxide and decapitated. The rats' brains were removed and the cerebral cortices were dissected and homogenized in 10 volumes of 0.32 M sucrose. Tissue was centrifuged at 1000 x g for 10 minutes and the resultant supernatant was centrifuged at 9,000 g for 20 minutes. The resultant pellet was resuspended in 10 volumes of 200 mM NaCl/50 mM Na-K phosphate pH 7.4 buffer (binding buffer) and then centrifuged at 9,000 x g for 10 minutes. This washing procedure was repeated twice and the final P2 pellet was resuspended in the binding buffer. For the binding assay, [^35S] TBPS (2 nM) was co-incubated in binding buffer with P2 membranes and 5 µM GABA and either 1) no additions to measure total binding; 2) 2 µM unlabeled TPBS to measure nonspecific binding; 3) the neurosteroid ranging in concentration from 1 Nm to 10µM. Following a 90 minute incubation at 22°C, the suspension was filtered and the bound radioactivity was determined by liquid scintillation counting. […] A lower IC50 indicates higher affinity for the steroid site on the GABAA receptor-chloride channel complex. Table 1 gives the IC50 values of representative steroids used in the present invention.
row,Compound,IC50
1,"C[C@]12CC[C@@H](O)C[C@H]1CC[C@@H]1[C@@H]2CC[C@]2(C)[C@@H](C(=O)CO)CC[C@@H]12 [3α,21-dihydroxy-50-pregnan-20-one]",180 nM
2,"CC(C)(O)[C@H]1CC[C@H]2[C@@H]3CC[C@H]4C[C@H](O)CC[C@]4(C)[C@H]3CC[C@]12C [3α,20-dihydroxy-20-methyl-5α-pregnane]",151 nM
3,"20,20-ethylenedioxy-3α-hydroxy-5α-pregnan-20-one",176 nM
4,CC(=O)[C@H]1CC[C@H]2[C@@H]3CC[C@H]4C[C@@](O)(CN=[N+]=[N-])CC[C@]4(C)[C@H]3CC[C@]12C [3β-azidomethyl-3α-hydroxy-5α-pregnan-20-one],34 nM
5,"C[C@H](O)[C@H]1CC[C@H]2[C@@H]3CC[C@H]4C[C@](C)(O)CC[C@]4(C)[C@H]3CC[C@]12C [3α,20a-dihydroxy-30-methyl-5α-pregnane]",166 nM
6,CC(=O)[C@H]1CC[C@H]2[C@@H]3CC[C@H]4C[C@@](O)(CCl)CC[C@]4(C)[C@H]3CC[C@]12C [3α-hydroxy-3β-chloromethyl-5α-pregnan-20-one],93 nM
7,"CC(=O)OCC(=O)[C@H]1CC[C@H]2[C@@H]3CC[C@H]4C[C@H](O)CC[C@]4(C)[C@H]3CC[C@]12C [3α,21-dihydroxy-5α-pregnan-20-one 21-acetate]",75 nM and 119 nM
8,C[C@@]12CCC[C@H]1[C@@H]1CC[C@H]3C[C@H](O)CC[C@]3(C)[C@H]1CC2 [3α-Hydroxy-5α-androstane],252 nM
9,CC(=O)[C@H]1CC[C@H]2[C@@H]3CC[C@@H]4C[C@@](O)(C#CCl)CC[C@]4(C)[C@H]3CC[C@]12C [3β-(chloroethynyl)-3α-hydroxy-5β-pregnan-20-one],26 nM
10,"C[C@@]1(O)CC[C@@]2(C)[C@@H](CC[C@@H]3[C@@H]2CC[C@]2(C)[C@@H](C(=O)COC(=O)CCC(=O)O)CC[C@@H]32)C1 [3α,21-dihydroxy-3β-methyl-5α-pregnan-20-one 21-Hemisuccinate]",241 nM
11,C/C=C1/CC[C@H]2[C@@H]3CC[C@@H]4C[C@H](O)CC[C@]4(C)[C@H]3CC[C@]12C [3α-hydroxy-5β-pregnan-cis(Z)-17(20)-ene],180 nM
12,CC(=O)[C@H]1CC[C@H]2[C@@H]3CC[C@H]4C[C@@](O)(CF)CC[C@]4(C)[C@H]3CC[C@]12C [3α-hydroxy-3β-fluoromethyl-5α-pregnan-20-one],200 nM
13,"COc1ccc(C#C[C@@]2(O)CC[C@@]3(C)[C@H](CC[C@@H]4[C@@H]3CC[C@]3(C)[C@@H](C(C)=O)CC[C@@H]43)C2)cc1OC [3β-[(3',4'-Dimethoxyphenyl)ethynyl] -3α-hydroxy-5/3-pregnan-20-one]",283 nM
14,C/C=C1/CC[C@H]2[C@@H]3CC[C@H]4C[C@H](O)CC[C@@H]4[C@H]3CC[C@]12C [3α-hydroxy-19-nor-5α-pregnan-cis-17(20)-ene],373 nM
15,C/C=C1/CC[C@H]2[C@@H]3CC[C@@H]4C[C@H](O)CC[C@@H]4[C@H]3CC[C@]12C [3α-Hydroxy-5β-19-nor-pregn-17(z) ene],209 nM
16,CC(=O)[C@H]1CC[C@H]2[C@@H]3CC[C@H]4C[C@@](O)(C(F)(F)F)CC[C@@H]4[C@H]3CC[C@]12C [3α-Hydroxy-3β-trifluoromethyl-19-nor-5α-pregnan-20-one],251 nM
17,C[C@]12CC[C@@H](O)C[C@@H]1CC[C@@H]1[C@@H]2CC[C@]2(C)[C@@H](C(=O)CSc3ccncc3)CC[C@@H]12 [3α-hydroxy-21-(pyrid-4-ylthio)-5α-pregnan-20-one],23 nM
18,CC(=O)[C@H]1CC[C@H]2[C@@H]3CC[C@@H]4C[C@@](O)(C#Cc5ccccc5O)CC[C@]4(C)[C@H]3CC[C@]12C [3β-(2'-Hydroxyphenyl)ethynyl-3α-hydroxy-5β-pregnan-20-one],192 nM
19,C#C[C@@]1(O)CC[C@H]2[C@H](CC[C@@H]3[C@@H]2CC[C@]2(C)[C@@H](C(C)=O)CC[C@@H]32)C1 [3β-Ethynyl-3α-hydroxy-19-nor-5β-pregnan-20-one],44 nM
20,CC(=O)[C@H]1CC[C@H]2[C@@H]3CC[C@@H]4C[C@@](O)(C#CCC(C)OC(=O)CCC(=O)O)CC[C@]4(C)[C@H]3CC[C@]12C (mixture of isomers) [3α-Hydroxy-3β-[4'(R/S)-hydroxypentynyl]-5β-pregnan-20-one 4'(R/S)-hemisuccinate sodium salt],153 nM

row,Compound,IC50
1,"C[C@@H](O)[C@H]1CC[C@H]2[C@@H]3CC[C@@H]4C[C@H](O)CC[C@]4(C)[C@H]3CC[C@]12C [3α,20b-dihydroxy-5β-pregnane]",206 nM
2,"CC(=O)OCC(=O)[C@H]1CC[C@H]2[C@@H]3CC[C@@H]4C[C@@](O)(C(F)(F)F)CC[C@]4(C)[C@H]3CC[C@]12C [3α,21-Dihydroxy-3β-trifluoromethyl-5β-pregnan-20-one, 21-acetate]",370 nM
3,CC(=O)[C@H]1CC[C@H]2[C@@H]3CC[C@H]4C[C@@](O)(CBr)CC[C@]4(C)[C@H]3CC[C@]12C [3β-(Bromomethyl)-3α-hydroxy-5α-pregnan-20-one],190 nM
4,CCCCC#C[C@@]1(O)CC[C@@]2(C)[C@H](CC[C@@H]3[C@@H]2CC[C@]2(C)[C@@H](C(C)=O)CC[C@@H]32)C1 [3β-(1-Hexynyl)-3α-hydroxy-5β-pregnan-20-one],44 nM
5,C/C=C1/CC[C@H]2[C@@H]3CC[C@H]4C[C@](C)(O)CC[C@@H]4[C@H]3CC[C@]12C [3α-hydroxy-3β-methyl-5α-19-nor-pregn-(Z)-17(20)-ene],364 nM
6,COC[C@@]1(O)CC[C@@]2(C)[C@H](CC[C@@H]3[C@@H]2CC[C@]2(C)[C@@H](C(C)=O)CC[C@@H]32)C1 [3α-hydroxy-30-methoxymethyl-5β-pregnan-20-one],40 nM
7,CCCCCCC#C[C@@]1(O)CC[C@@]2(C)[C@H](CC[C@@H]3[C@@H]2CC[C@]2(C)[C@@H](C(C)=O)CC[C@@H]32)C1 [3β-(1-Octynyl)-3α-hydroxy-5β-pregnan-20-one],63 nM
8,CCCCCC#C[C@@]1(O)CC[C@@]2(C)[C@H](CC[C@@H]3[C@@H]2CC[C@]2(C)[C@@H](C(C)=O)CC[C@@H]32)C1 [3β-(1-Heptynyl)-3α-hydroxy-5β-pregnan-20-one],65 nM
9,C#C[C@@]1(O)CC[C@H]2[C@H](CC[C@@H]3[C@@H]2CC[C@]2(C)/C(=C\C)CC[C@@H]32)C1 [3β-Ethynyl-3α-hydroxy-5β-19-nor-pregn-17(z)-ene],460 nM
10,CC(=O)[C@H]1CC[C@H]2[C@@H]3CC[C@H]4C[C@@](O)(CC#N)CC[C@]4(C)[C@H]3CC[C@]12C [3β-cyanomethyl-3α-hydroxy-5α-pregnan-20-one],439 nM
11,COCC(=O)[C@H]1CC[C@H]2[C@@H]3CC[C@@H]4C[C@@](O)(C(F)(F)F)CC[C@@H]4[C@H]3CC[C@]12C [3α-hydroxy-21-methoxy-3β-trifluoromethyl-5β-19-nor-pregnan-20-one],252 nM
12,"C[C@H](O)[C@H]1CC[C@H]2[C@@H]3CC[C@@H]4C[C@H](O)CC[C@]4(C)[C@H]3CC[C@]12C [3α, 20a-dihydroxy-5β-pregnane]",292 nM
13,C[C@]12CC[C@@H](O)C[C@@H]1CC[C@@H]1[C@@H]2CC[C@]2(C)[C@@H](C#N)CC[C@@H]12 [3α-hydroxy-17b-cyano-5α-androstane],67 nM
14,"CC[C@H](O)[C@H]1CC[C@H]2[C@@H]3CC[C@H]4C[C@H](O)CC[C@]4(C)[C@H]3CC[C@]12C [3α,20a-Dihydroxy-21-methyl-5α-pregnane]",35 nM
15,C#C[C@H]1CC[C@H]2[C@@H]3CC[C@H]4C[C@H](O)CC[C@]4(C)[C@H]3CC[C@]12C [3α-Hydroxy-17b-ethynyl-5α-androstane],254 nM
16,C[C@]12CC[C@@H](O)C[C@@H]1CC[C@@H]1[C@@H]2CC[C@]2(C)[C@@H](CO)CC[C@@H]12 [3α-hydroxy-17b-hydroxymethyl-5α-androstane-],455 nM
17,"C[C@]12CC[C@H]3[C@@H](CC[C@@H]4C[C@@](O)(C(F)(F)F)CC[C@@H]43)[C@@H]1CC[C@@H]2C(=O)CO [3α, 21-Dihydroxy-3β-trifluoromethyl-19-nor-5β-pregnan-20-one]",265 nM
18,"C=C=CC[C@@]1(O)CC[C@@]2(C)[C@@H](CC[C@@H]3[C@@H]2CC[C@]2(C)[C@@H](C(C)=O)CC[C@@H]32)C1 [3β-(Buta-2,3-dienyl)-3α-hydroxy-5α-pregnan-20-one]",347 nM
19,CC(=O)c1ccc(C#C[C@@]2(O)CC[C@@]3(C)[C@H](CC[C@@H]4[C@@H]3CC[C@]3(C)[C@@H](C(C)=O)CC[C@@H]43)C2)cc1 [3β-(4'-Acetylphenyl)ethynyl-3α-hydroxy-5β-pregnan-20-one],14 nM
20,C/C=C1/CC[C@H]2[C@@H]3CC[C@@H]4C[C@](C)(O)CC[C@@H]4[C@H]3CC[C@]12C [3α-Hydroxy-3β-methyl-5β-19-nor-pregn-17 (Z)-ene],154 nM

# Same assay, conditions: inhibition of [35S]TBPS (2 nM) binding, rat cerebral cortex P2 membranes, 5 µM GABA, 90 minute incubation at 22°C; sodium salt
row,Compound,IC50
1,"C[C@]12CC[C@@H](O)C[C@@H]1CC[C@@H]1[C@@H]2CC[C@]2(C)[C@@H](C(=O)COC(=O)CCC(=O)O)CC[C@@H]12 [3α,21-dihydroxy-5α-pregnan-20-one 21-hemisuccinate, sodium salt]",251 nM
2,"C[C@@]1(O)CC[C@@]2(C)[C@@H](CC[C@@H]3[C@@H]2CC[C@]2(C)[C@@H](C(=O)COC(=O)CCC(=O)O)CC[C@@H]32)C1 [3α,21-dihydroxy-3β-methyl-5α-pregnan-20-one 21-Hemisuccinate, sodium salt]",211 nM
